By IC50 is commonly meant the midpoint of a concentration-inhibition curve.

IC50 data for 24 molecules are collected here from US10450316B2, “Certain protein kinase inhibitor” (Chongqing Fochon Pharmaceutical Co., Ltd., priority 2015, dated 2019).

The assay deals with BE(2)-C cell. Put plainly: Cell proliferation assay (MTS) in BE(2)-C cells. Type of assay: cell-based. The following applies: Homo sapiens, inhibition of BE(2)-C cell proliferation, 48 h. The gist of the method:
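BE(2)-C cells (3000/well, DMEM + 10% FBS) were treated for 48 h at 37 °C with compound at 1.5–10000 nM in nine concentrations. Viability was measured by MTS (2 h, stopped with SDS) at 490/650 nm, and IC50 was calculated from the dose-response.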
As to `CN1CC2CN(Cc3ccc(Nc4ncc(F)c(-c5cc(F)c6nc7n(c6c5)C5(CC7)CC5)n4)nc3)CC21` (stereo not drawn) [Example 142, 5-fluoro-4-(5-fluoro-2,3-dihydrospiro[benzo[d]pyrrolo[1,2-a]imidazole-1,1′-cyclopropan]-7-yl)-N-(5-((6-methyl-3,6-diazabicyclo[3.2.0]heptan-3-yl)methyl)pyridin-2-yl)pyrimidin-2-amine], the 50% inhibitory concentration (IC50) was above 1000 nM. Then `CCN1CC2CN(Cc3ccc(Nc4ncc(F)c(-c5cc(F)c6nc7n(c6c5)C5(CC7)CC5)n4)nc3)CC21` (stereo not drawn) [Example 143, N-(5-((6-ethyl-3,6-diazabicyclo[3.2.0]heptan-3-yl)methyl)pyridin-2-yl)-5-fluoro-4-(5-fluoro-2,3-dihydrospiro[benzo[d]pyrrolo[1,2-a]imidazole-1,1′-cyclopropan]-7-yl)pyrimidin-2-amine], with above 1000 nM; and `Fc1cnc(Nc2ccc(CN3CCN4CCC[C@H]4C3)cn2)nc1-c1cc(F)c2nc3n(c2c1)C1(CC3)CC1` [Example 144, (S)-5-fluoro-4-(5-fluoro-2,3-dihydrospiro[benzo [d]pyrrolo[1,2-a]imidazole-1,1′-cyclopropan]-7-yl)-N-(5-((hexahydropyrrolo[1,2-a]pyrazin-2(1H)-yl)methyl)pyridin-2-yl)pyrimidin-2-amine], with 10 to 100 nM. With `Fc1cnc(Nc2ccc(CN3CCN4CCC[C@@H]4C3)cn2)nc1-c1cc(F)c2nc3n(c2c1)C1(CC3)CC1` [Example 145, (R)-5-fluoro-4-(5-fluoro-2,3-dihydrospiro[benzo [d]pyrrolo[1,2-a]imidazole-1,1′-cyclopropan]-7-yl)-N-(5-((hexahydropyrrolo[1,2-a]pyrazin-2(1H)-yl)methyl)pyridin-2-yl)pyrimidin-2-amine], the half-inhibitory concentration (IC50) fell in the range of 10 to 100 nM. Then `O[C@@H]1C[C@H]2CN(Cc3ccc(Nc4ncc(F)c(-c5cc(F)c6nc7n(c6c5)C5(CC7)CC5)n4)nc3)CCN2C1` [Example 146, (7R,8aS)-2-((6-((5-fluoro-4-(5-fluoro-2,3-dihydro-spiro[benzo[d]pyrrolo[1,2-a]imidazole-1,1′-cyclo-propan]-7-yl)pyrimidin-2-yl)amino)pyridin-3-yl)methyl)octahydropyrrolo[1,2-a]pyrazin-7-ol], with above 1000 nM; and `NC1C2CN(Cc3ccc(Nc4ncc(F)c(-c5cc(F)c6nc7n(c6c5)C5(CC7)CC5)n4)nc3)CC12` (stereo not drawn) [Example 147, 3-((6-((5-fluoro-4-(5-fluoro-2,3-dihydrospiro [benzo[d]pyrrolo[1,2-a]imidazole-1,1′-cyclo-propan]-7-yl)pyrimidin-2-yl)amino)pyridin-3-yl)methyl)-3-azabicyclo[3.1.0]hexan-6-amine], with above 1000 nM.

On to `Fc1cnc(Nc2ccc(CN3CCN4CCOC[C@H]4C3)cn2)nc1-c1cc(F)c2nc3n(c2c1)C1(CC3)CC1` [Example 148, (R)-5-fluoro-4-(5-fluoro-2,3-dihydrospiro[benzo [d]pyrrolo[1,2-a]imidazole-1,1′-cyclopropan]-7-yl)-N-(5-((hexahydropyrazino[2,1-c][1,4]oxazin-8(1H)-yl)methyl)pyridin-2-yl)pyrimidin-2-amine], for which the 50% inhibitory concentration (IC50) was 10 to 100 nM. With `Fc1cnc(Nc2ccc(CN3CCNCC3)cn2)nc1-c1cc(F)c2nc3n(c2c1)CCC3` [Example 149, 5-fluoro-4-(5-fluoro-2,3-dihydro-1H-benzo[d]pyrrolo[1,2-a]imidazol-7-yl)-N-(5-(piperazin-1-ylmethyl)pyridin-2-yl)pyrimidin-2-amine], the IC50 is above 100 nM.

As for `CN1CCN(Cc2ccc(Nc3ncc(F)c(-c4cc(F)c5nc6n(c5c4)CCC6)n3)nc2)CC1` [Example 150, 5-fluoro-4-(5-fluoro-2,3-dihydro-1H-benzo[d]pyrrolo[1,2-a]imidazol-7-yl)-N-(5-((4-methyl-piperazin-1-yl)methyl)pyridin-2-yl)pyrimidin-2-amine], the 50% inhibitory concentration (IC50) fell in the range of 10 to 100 nM.

`Fc1cnc(Nc2ccc(CN3CCNCC3)cn2)nc1-c1cc(F)c2nc3n(c2c1)[C@@H](C(F)F)CC3` [Example 152, (R)-4-(1-(difluoromethyl)-5-fluoro-2,3-dihydro-1H-benzo[d]pyrrolo[1,2-a]imidazol-7-yl)-5-fluoro-N-(5-(piperazin-1-ylmethyl)pyridin-2-yl)pyrimidin-2-amine]: the IC50 is above 1000 nM.

The molecule `CN1CCN(Cc2ccc(Nc3ncc(F)c(-c4cc(F)c5nc6n(c5c4)[C@@H](C(F)F)CC6)n3)nc2)CC1` [Example 153, (R)-4-(1-(difluoromethyl)-5-fluoro-2,3-dihydro-1H-benzo[d]pyrrolo[1,2-a]imidazol-7-yl)-5-fluoro-N-(5-((4-methylpiperazin-1-yl)methyl)pyridin-2-yl)pyrimidin-2-amine] gave a 50% inhibitory concentration (IC50) above 1000 nM. `CCN1CCN(Cc2ccc(Nc3ncc(F)c(-c4cc(F)c5nc6n(c5c4)[C@@H](C(F)F)CC6)n3)nc2)CC1` [Example 154, (R)-4-(1-(difluoromethyl)-5-fluoro-2,3-dihydro-1H-benzo[d]pyrrolo[1,2-a]imidazol-7-yl)-N-(5-((4-ethylpiperazin-1-yl)methyl)pyridin-2-yl)-5-fluoropyrimidin-2-amine]: the IC50 was above 1000 nM. Then `COC[C@H]1CCc2nc3c(F)cc(-c4nc(Nc5ccc(CN6CCNCC6)cn5)ncc4F)cc3n21` [Example 158, (R)-5-fluoro-4-(5-fluoro-1-(methoxymethyl)-2,3-dihydro-1H-benzo[d]pyrrolo[1,2-a]imidazol-7-yl)-N-(5-(piperazin-1-ylmethyl)pyridin-2-yl)pyrimidin-2-amine], with above 1000 nM; and `COC[C@H]1CCc2nc3c(F)cc(-c4nc(Nc5ccc(CN6CCN(C)CC6)cn5)ncc4F)cc3n21` [Example 159, (R)-5-fluoro-4-(5-fluoro-1-(methoxymethyl)-2,3-dihydro-1H-benzo[d]pyrrolo[1,2-a]imidazol-7-yl)-N-(5-((4-methylpiperazin-1-yl)methyl)pyridin-2-yl)pyrimidin-2-amine], with above 1000 nM; and `CCN1CCN(Cc2ccc(Nc3ncc(F)c(-c4cc(F)c5nc6n(c5c4)[C@@H](COC)CC6)n3)nc2)CC1` [Example 160, (R)-N-(5-((4-ethylpiperazin-1-yl)methyl)pyridin-2-yl)-5-fluoro-4-(5-fluoro-1-(methoxymethyl)-2,3-dihydro-1H-benzo[d]pyrrolo[1,2-a]imidazol-7-yl)pyrimidin-2-amine], with above 100 nM. The result for `CC1(C)CCc2nc3c(F)cc(-c4cc(Nc5ccc(CN6C7CCC6CNC7)cn5)ncc4F)cc3n21` [Example 161, N-(5-((3,8-diazabicyclo[3.2.1]octan-8-yl)methyl)pyridin-2-yl)-5-fluoro-4-(5-fluoro-1,1-dimethyl-2,3-dihydro-1H-benzo[d]pyrrolo[1,2-a]imidazol-7-yl)pyridin-2-amine] reads above 100 nM; that for `CN1CC2CCC(C1)N2Cc1ccc(Nc2cc(-c3cc(F)c4nc5n(c4c3)C(C)(C)CC5)c(F)cn2)nc1` [Example 162, 5-fluoro-4-(5-fluoro-1,1-dimethyl-2,3-dihydro-1H-benzo[d]pyrrolo[1,2-a]imidazol-7-yl)-N-(5-((3-methyl-3,8-diazabicyclo[3.2.1]octan-8-yl)methyl)pyridin-2-yl)pyridin-2-amine], above 1000 nM. `CCN1CC2CCC(C1)N2Cc1ccc(Nc2cc(-c3cc(F)c4nc5n(c4c3)C(C)(C)CC5)c(F)cn2)nc1` [Example 163, N-(5-((3-ethyl-3,8-diazabicyclo[3.2.1]octan-8-yl)methyl)pyridin-2-yl)-5-fluoro-4-(5-fluoro-1,1-dimethyl-2,3-dihydro-1H-benzo[d]pyrrolo[1,2-a]imidazol-7-yl)pyridin-2-amine]: the IC50 was above 1000 nM. Then `CC1(C)CCc2nc3c(F)cc(-c4cc(Nc5ncc(CN6CCNCC6)cn5)ncc4F)cc3n21` [Example 164, N-(5-fluoro-4-(5-fluoro-1,1-dimethyl-2,3-dihydro-1H-benzo[d]pyrrolo[1,2-a]imidazol-7-yl)pyridin-2-yl)-5-(piperazin-1-ylmethyl)pyrimidin-2-amine], with 10 to 100 nM; and `CN1CCN(Cc2cnc(Nc3cc(-c4cc(F)c5nc6n(c5c4)C(C)(C)CC6)c(F)cn3)nc2)CC1` [Example 165, N-(5-fluoro-4-(5-fluoro-1,1-dimethyl-2,3-dihydro-1H-benzo[d]pyrrolo[1,2-a]imidazol-7-yl)pyridin-2-yl)-5-((4-methylpiperazin-1-yl)methyl)pyrimidin-2-amine], with above 100 nM. The result for `CCN1CCN(Cc2cnc(Nc3cc(-c4cc(F)c5nc6n(c5c4)C(C)(C)CC6)c(F)cn3)nc2)CC1` [Example 166, 5-((4-ethylpiperazin-1-yl)methyl)-N-(5-fluoro-4-(5-fluoro-1,1-dimethyl-2,3-dihydro-1H-benzo[d]pyrrolo[1,2-a]imidazol-7-yl)pyridin-2-yl)pyrimidin-2-amine] reads above 100 nM; that for `CC1(C)CCc2nc3ncc(-c4cc(Nc5ccc(CN6C7CCC6CNC7)cn5)ncc4F)cc3n21` [Example 167, N-(5-((3,8-diazabicyclo[3,2,1]octan-8-yl)methyl)pyridin-2-yl)-4-(6,6-dimethyl-7,8-dihydro-6H-pyrrolo[1′,2′:1,2]imidazo[4,5-b]pyridin-3-yl)-5-fluoropyridin-2-amine], 10 to 100 nM. Then `CN1CC2CCC(C1)N2Cc1ccc(Nc2cc(-c3cnc4nc5n(c4c3)C(C)(C)CC5)c(F)cn2)nc1` [Example 168, 4-(6,6-dimethyl-7,8-dihydro-6H-pyrrolo[1′,2′:1,2]imidazo[4,5-b]pyridin-3-yl)-5-fluoro-N-(5-((3-methyl-3,8-diazabicyclo[3.2.1]octan-8-yl)methyl)pyridin-2-yl)pyridin-2-amine], with above 100 nM; and `CCN1CC2CCC(C1)N2Cc1ccc(Nc2cc(-c3cnc4nc5n(c4c3)C(C)(C)CC5)c(F)cn2)nc1` [Example 169, 4-(6,6-dimethyl-7,8-dihydro-6H-pyrrolo[1′,2′:1,2]imidazo[4,5-b]pyridin-3-yl)-N-(5-((3-ethyl-3,8-diazabicyclo[3.2.1]octan-8-yl)methyl)pyridin-2-yl)-5-fluoropyridin-2-amine], with above 100 nM.
